#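 Method: 48-hour compound exposure of cells in 96-well plates, five concentrations, linear interpolation of endpoints. GI50: concentration for 50% inhibition of growth. At the TGI there is no net growth.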
# Columns and labels:
# Assay in all cases: NCI-60 cell line screen, 48 h
# 786-0 renal = tested on: 786-0 renal
# A498 renal = tested on: A498 renal
# A549 NSCLC = tested on: A549 NSCLC
# ACHN renal = tested on: ACHN renal
# BT-549 breast = tested on: BT-549 breast
# CAKI-1 renal = tested on: CAKI-1 renal
# CCRF-CEM leukemia = tested on: CCRF-CEM leukemia
# COLO 205 colon = tested on: COLO 205 colon
# DU-145 prostate = tested on: DU-145 prostate
# EKVX NSCLC = tested on: EKVX NSCLC
# HCC-2998 colon = tested on: HCC-2998 colon
# HCT-116 colon = tested on: HCT-116 colon
# HCT-15 colon = tested on: HCT-15 colon
# HL-60(TB) leukemia = tested on: HL-60(TB) leukemia
# HOP-62 NSCLC = tested on: HOP-62 NSCLC
# HOP-92 NSCLC = tested on: HOP-92 NSCLC
# HS 578T breast = tested on: HS 578T breast
# HT29 colon = tested on: HT29 colon
# K-562 leukemia = tested on: K-562 leukemia
# KM12 colon = tested on: KM12 colon
# LOX IMVI melanoma = tested on: LOX IMVI melanoma
# M14 melanoma = tested on: M14 melanoma
# MALME-3M melanoma = tested on: MALME-3M melanoma
# MCF7 breast = tested on: MCF7 breast
# MDA-MB-231 breast = tested on: MDA-MB-231 breast
# MDA-MB-435 = tested on: MDA-MB-435
# MDA-MB-468 breast = tested on: MDA-MB-468 breast
# MOLT-4 leukemia = tested on: MOLT-4 leukemia
# NCI-H226 lung = tested on: NCI-H226 lung
# NCI-H23 lung = tested on: NCI-H23 lung
# NCI-H460 lung = tested on: NCI-H460 lung
# NCI-H522 lung = tested on: NCI-H522 lung
# NCI/ADR-RES ovarian = tested on: NCI/ADR-RES ovarian
# OVCAR-3 ovarian = tested on: OVCAR-3 ovarian
# OVCAR-4 ovarian = tested on: OVCAR-4 ovarian
# OVCAR-5 ovarian = tested on: OVCAR-5 ovarian
# OVCAR-8 ovarian = tested on: OVCAR-8 ovarian
# PC-3 prostate = tested on: PC-3 prostate
# RPMI-8226 leukemia = tested on: RPMI-8226 leukemia
# RXF 393 renal = tested on: RXF 393 renal
# SF-268 CNS = tested on: SF-268 CNS
# SF-295 CNS = tested on: SF-295 CNS
# SF-539 CNS = tested on: SF-539 CNS
# SK-MEL-2 melanoma = tested on: SK-MEL-2 melanoma
# SK-MEL-28 melanoma = tested on: SK-MEL-28 melanoma
# SK-MEL-5 melanoma = tested on: SK-MEL-5 melanoma
# SK-OV-3 ovarian = tested on: SK-OV-3 ovarian
# SN12C renal = tested on: SN12C renal
# SNB-19 CNS = tested on: SNB-19 CNS
# SNB-75 CNS = tested on: SNB-75 CNS
# SR leukemia = tested on: SR leukemia
# SW-620 colon = tested on: SW-620 colon
# T-47D breast = tested on: T-47D breast
# TK-10 renal = tested on: TK-10 renal
# U251 CNS = tested on: U251 CNS
# UACC-257 melanoma = tested on: UACC-257 melanoma
# UACC-62 melanoma = tested on: UACC-62 melanoma
# UO-31 renal = tested on: UO-31 renal
smiles,measurement,setting,value
COc1cncc(-c2ccc3ncnc(N4CCc5ccc(Cl)cc54)c3c2)c1,GI50,786-0 renal,1.61 µM
same,TGI,786-0 renal,15.8 µM
same,GI50,A498 renal,0.371 µM
same,TGI,A498 renal,4.02 µM
same,GI50,A549 NSCLC,1.85 µM
same,TGI,A549 NSCLC,18.4 µM
same,GI50,ACHN renal,1.04 µM
same,TGI,ACHN renal,15.5 µM
same,GI50,BT-549 breast,1.78 µM
same,TGI,BT-549 breast,8.41 µM
same,GI50,CAKI-1 renal,0.885 µM
same,TGI,CAKI-1 renal,13.8 µM
same,GI50,CCRF-CEM leukemia,3.13 µM
same,TGI,CCRF-CEM leukemia,54.1 µM
same,GI50,COLO 205 colon,4.4 µM
same,TGI,COLO 205 colon,23 µM
same,GI50,DU-145 prostate,1.98 µM
same,TGI,DU-145 prostate,27 µM
same,GI50,EKVX NSCLC,1.22 µM
same,TGI,EKVX NSCLC,11.5 µM
same,GI50,HCC-2998 colon,3.48 µM
same,TGI,HCC-2998 colon,19.8 µM
same,GI50,HCT-116 colon,2.97 µM
same,TGI,HCT-116 colon,77.7 µM
same,GI50,HCT-15 colon,3.04 µM
same,TGI,HCT-15 colon,19.9 µM
same,TGI,HL-60(TB) leukemia,6.2 µM
same,GI50,HOP-62 NSCLC,2.19 µM
same,TGI,HOP-62 NSCLC,24.9 µM
same,GI50,HOP-92 NSCLC,2.24 µM
same,TGI,HOP-92 NSCLC,17.8 µM
same,GI50,HS 578T breast,1.48 µM
same,TGI,HS 578T breast,6.5 µM
same,GI50,HT29 colon,3.11 µM
same,TGI,HT29 colon,20.5 µM
same,GI50,K-562 leukemia,4.56 µM
same,TGI,K-562 leukemia,> 100 µM
same,GI50,KM12 colon,2.58 µM
same,TGI,KM12 colon,16.4 µM
same,GI50,LOX IMVI melanoma,3.28 µM
same,TGI,LOX IMVI melanoma,20.5 µM
same,GI50,M14 melanoma,7.6 µM
same,TGI,M14 melanoma,37.4 µM
same,GI50,MALME-3M melanoma,9.11 µM
same,TGI,MALME-3M melanoma,24.2 µM
same,GI50,MCF7 breast,1.74 µM
same,TGI,MCF7 breast,11.3 µM
same,GI50,MDA-MB-231 breast,3.43 µM
same,TGI,MDA-MB-231 breast,33.1 µM
same,GI50,MDA-MB-435,4.05 µM
same,TGI,MDA-MB-435,22.3 µM
same,GI50,MDA-MB-468 breast,0.231 µM
same,TGI,MDA-MB-468 breast,2.26 µM
same,GI50,MOLT-4 leukemia,1.96 µM
same,TGI,MOLT-4 leukemia,6.96 µM
same,GI50,NCI-H226 lung,2.04 µM
same,TGI,NCI-H226 lung,18.3 µM
same,GI50,NCI-H23 lung,5.33 µM
same,TGI,NCI-H23 lung,29.6 µM
same,GI50,NCI-H460 lung,3.65 µM
same,TGI,NCI-H460 lung,20.3 µM
same,GI50,NCI-H522 lung,2.17 µM
same,TGI,NCI-H522 lung,12.1 µM
same,GI50,NCI/ADR-RES ovarian,2.16 µM
same,TGI,NCI/ADR-RES ovarian,27.9 µM
same,GI50,OVCAR-3 ovarian,2.41 µM
same,TGI,OVCAR-3 ovarian,18.4 µM
same,GI50,OVCAR-4 ovarian,2.69 µM
same,TGI,OVCAR-4 ovarian,22.9 µM
same,GI50,OVCAR-5 ovarian,3.13 µM
same,TGI,OVCAR-5 ovarian,23.7 µM
same,GI50,OVCAR-8 ovarian,3.98 µM
same,TGI,OVCAR-8 ovarian,55.9 µM
same,GI50,PC-3 prostate,2.47 µM
same,TGI,PC-3 prostate,> 100 µM
same,GI50,RPMI-8226 leukemia,2.97 µM
same,TGI,RPMI-8226 leukemia,> 100 µM
same,GI50,RXF 393 renal,1.28 µM
same,TGI,RXF 393 renal,4.86 µM
same,GI50,SF-268 CNS,3.02 µM
same,TGI,SF-268 CNS,26.9 µM
same,GI50,SF-295 CNS,3.53 µM
same,TGI,SF-295 CNS,29.6 µM
same,GI50,SF-539 CNS,3.41 µM
same,TGI,SF-539 CNS,14.4 µM
same,GI50,SK-MEL-2 melanoma,4.33 µM
same,TGI,SK-MEL-2 melanoma,19.7 µM
same,GI50,SK-MEL-28 melanoma,7.02 µM
same,TGI,SK-MEL-28 melanoma,21.9 µM
same,GI50,SK-MEL-5 melanoma,2.62 µM
same,TGI,SK-MEL-5 melanoma,12.4 µM
same,GI50,SK-OV-3 ovarian,2.81 µM
same,TGI,SK-OV-3 ovarian,16.4 µM
same,GI50,SN12C renal,2.42 µM
same,TGI,SN12C renal,21.3 µM
same,GI50,SNB-19 CNS,3.56 µM
same,TGI,SNB-19 CNS,27 µM
same,GI50,SNB-75 CNS,0.623 µM
same,TGI,SNB-75 CNS,5.25 µM
same,GI50,SR leukemia,3.03 µM
same,TGI,SR leukemia,25.4 µM
same,GI50,SW-620 colon,6.17 µM
same,TGI,SW-620 colon,26.9 µM
same,GI50,T-47D breast,1.23 µM
same,TGI,T-47D breast,10 µM
same,GI50,TK-10 renal,1.27 µM
same,TGI,TK-10 renal,9.58 µM
same,GI50,U251 CNS,4.24 µM
same,TGI,U251 CNS,24 µM
same,GI50,UACC-257 melanoma,9.01 µM
same,TGI,UACC-257 melanoma,28.5 µM
same,GI50,UACC-62 melanoma,2.49 µM
same,TGI,UACC-62 melanoma,16.3 µM
same,GI50,UO-31 renal,0.718 µM
same,TGI,UO-31 renal,11.8 µM
